Assay [1] deals with T1, CDK7/Cyclin H/MAT-1 complex (Homo sapiens, UniProt P50613).
T1 construct: Human CDK7 (amino acids 1-346); His6 (N); TEV protease cleavage site (N); made in house; host or cells: baculovirus-SF9 insect cells
The experiment in a line: Flint assay, end-point fluorescence (5 nM CDK7/Cyclin H/MAT-1 complex). The format is biochemical. Conditions: for IC50: read-out: CDK7 (5 nM) pIC50 (converted). The essentials: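 Trimeric complex of His6-TEV-tagged human CDK7 (1-346), MAT1 (1-309) and cyclin H (1-323), co-expressed in Sf9 cells, at 5 nM final, with substrates and coupling reagents as in the absorbance assay; 24 h reaction. End-point NADH fluorescence decrease (ex 340/em 440 nm); % inhibition versus no-inhibitor and full-inhibition controls, IC50 from four-parameter Hill fit.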

Assay [2] deals with RNA polymerase II Serine 5 phosphorylation (Rpb1 CTD), downstream substrate of CDK7. The experiment in a line: Imaging-based cellular RNA PolII Ser5 phosphorylation assay in A549 cells. Conditions: Homo sapiens, A549, 3 h, challenged with compound for 3 hours, read-out: pRNA polII Ser5 (A549) pIC50 (converted). The format is cell-based, human. The essentials:
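A549 cells seeded 20 h in DMEM with 1% FBS, then exposed to compound for 3 h at 37 °C; fixed, methanol-permeabilized and immunostained for phospho-Rpb1 CTD Ser5, read by automated imaging. Signal normalized to DMSO (high) and 10 μM LDC4297 (low) controls; IC50 from four-parameter fit of % control vs concentration.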

T1 sequence (P50613 whole entry, the tested form may be a part): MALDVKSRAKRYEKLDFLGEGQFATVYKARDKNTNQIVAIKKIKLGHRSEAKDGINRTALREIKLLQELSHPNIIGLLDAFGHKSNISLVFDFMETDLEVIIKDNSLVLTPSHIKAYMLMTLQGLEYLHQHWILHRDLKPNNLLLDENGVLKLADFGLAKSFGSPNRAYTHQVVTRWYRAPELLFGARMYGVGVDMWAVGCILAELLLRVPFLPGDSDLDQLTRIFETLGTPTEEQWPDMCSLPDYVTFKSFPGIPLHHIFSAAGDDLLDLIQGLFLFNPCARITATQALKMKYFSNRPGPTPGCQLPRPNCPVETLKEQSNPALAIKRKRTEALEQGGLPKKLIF
T1 sequence (P51946 whole entry partner, the tested form may be a part): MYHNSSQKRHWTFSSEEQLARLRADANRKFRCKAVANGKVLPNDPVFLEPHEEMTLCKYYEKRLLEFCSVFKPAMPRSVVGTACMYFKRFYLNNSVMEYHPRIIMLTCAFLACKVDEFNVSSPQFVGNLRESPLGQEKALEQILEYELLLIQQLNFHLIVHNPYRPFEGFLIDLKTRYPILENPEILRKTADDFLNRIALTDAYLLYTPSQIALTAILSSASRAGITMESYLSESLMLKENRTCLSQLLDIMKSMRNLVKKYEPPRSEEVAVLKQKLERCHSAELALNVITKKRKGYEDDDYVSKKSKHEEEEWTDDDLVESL
T1 sequence (P51948 whole entry partner, the tested form may be a part): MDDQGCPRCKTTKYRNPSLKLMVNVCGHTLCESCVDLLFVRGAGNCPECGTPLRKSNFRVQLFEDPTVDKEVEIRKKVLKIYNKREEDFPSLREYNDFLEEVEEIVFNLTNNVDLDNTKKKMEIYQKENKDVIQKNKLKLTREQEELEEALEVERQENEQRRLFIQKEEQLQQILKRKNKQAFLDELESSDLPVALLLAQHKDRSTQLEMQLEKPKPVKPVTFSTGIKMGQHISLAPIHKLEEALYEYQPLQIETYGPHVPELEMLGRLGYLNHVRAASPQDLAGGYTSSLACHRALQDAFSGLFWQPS

Regarding `C[C@@H]1Cc2cnc(N[C@@H]3CCOC(C)(C)C3)nc2CN1C(=O)[C@H]1CCN(C)C[C@@H]1c1ccccc1` (relative stereo) [Compound 40], the IC50 in assay [1] is 7.24 nM; in assay [2], approximately 52.5 nM.
On to `CN1CC[C@H](C(=O)N2Cc3nc(Nc4cnn(C)c4)ncc3[C@@H]3C[C@@H]32)[C@@H](c2ccccc2)C1` [Compound 200], for which the “CDK7 (5 nM) pIC50” value in assay [1] came to 7.77. Besides, the IC50 in assay [2] is 324 nM.
For the molecule `C[C@@H]1Cc2cnc(NC[C@@H]3CCCO3)nc2CN1C(=O)[C@H]1CCN(C)C[C@@H]1c1ccccc1` [Compound 67], the IC50 in assay [1] was 16.6 nM; in assay [2], 1320 nM.
For `C[C@@H]1Cc2cnc(NC3CCN(CC(F)(F)F)CC3)nc2CN1C(=O)[C@H]1CCN(C)C[C@@H]1c1ccccc1` [Compound 45], the “CDK7 (5 nM) pIC50” value in assay [1] is listed as 7.65. In addition, in assay [2], the IC50 is 437 nM.
For `C[C@@H]1Cc2cnc(NC3CCOCC3)nc2CN1C(=O)[C@H]1CCN(C)C[C@@H]1c1ccc(Cl)c(F)c1` [Compound 122b], in that order: 8.5 and approximately 63.1 nM.
With `C[C@@H]1Cc2cnc(NCc3ccn(C)n3)nc2CN1C(=O)[C@H]1CCN(C)C[C@@H]1c1cccc(OC(F)(F)F)c1` (relative stereo) [Compound 128], the IC50 in assay [1] is 6.76 nM; in assay [2], 102 nM.
Take `CN1CC[C@H](C(=O)N2Cc3nc(NCc4ccn(C)n4)ncc3CC2(C)C)[C@@H](c2ccccc2)C1` (single isomer, unassigned) [Compound 191]: the “CDK7 (5 nM) pIC50” value in assay [1] is 7.41. Moreover, in assay [2], the IC50 was approximately 4270 nM.
For `C[C@@H]1Cc2cnc(NC3CCS(=O)(=O)CC3)nc2CN1C(=O)[C@H]1CCN(C)C[C@@H]1c1ccccc1` [Compound 44], in that order: 8.04 and 3090 nM.
Take `C[C@@H]1Cc2cnc(NC(C)(C)c3cnn(C)c3)nc2CN1C(=O)[C@H]1CCN(C)C[C@@H]1c1ccccc1` [Compound 90]: the “CDK7 (5 nM) pIC50” value in assay [1] was found to be 7.57. Besides, the IC50 in assay [2] is 5010 nM.
In the same order, the values of `C[C@@H]1c2nc(NC3CCOCC3)ncc2[C@@H](C)CN1C(=O)[C@H]1CCN(C)C[C@@H]1c1ccccc1` [Compound 180a] are 8.68 and approximately 32.4 nM.
For `C[C@@H]1Cc2cnc(NCC3CCS(=O)(=O)C3)nc2CN1C(=O)[C@H]1CCN(C)C[C@@H]1c1ccccc1` (stereo partly drawn) [Compound 49], in that order: 7.2 and more than 10000 nM.
In the same order, the values of `C[C@@H]1Cc2cnc(NC3CCN(S(=O)(=O)N(C)C)CC3)nc2CN1C(=O)N1CCN(C)C[C@@H]1c1ccccc1` [Compound 211] are 7.88 and 724 nM.

The record behind these values is patent US12679839B2, “Cyclin-dependent kinase 7 (CDK7) non-covalent inhibitors” (JANSSEN PHARMACEUTICA NV, priority 2020, dated 2026).
